One assay deals with Dunning Mat Ly Lu tumors. The assay is described as follows: Studies MLL-5 and MLL-6, Mat Ly Lu tumor implanted in Copenhagen rats. It is filed as in vivo. Here is the method: Anti-tumor efficacy evaluation of PCK3145 against Mat Ly Lu (MLL) tumor implanted in Copenhagen rats was performed. (Protocol based on S. Garde et al.; The Prostate, 22: 225-233, 1993). Mat LyLu tumor cells were harvested in mid-log phase from the culture flasks by trypsinization, were centrifuged at 1200 rotation per minute (rpm) and washed three timed with Hanks balanced salt solution (HBSS). Following washing, cells were counted and adjusted to a concentration of 5×10^6 cells/ml in HBSS. A 0.1 ml volume of tumor cell inoculum containing 5×10^5 cells was administered subcutaneously into the flank region of each rat. Treatment started at day 3 post-tumor implantation (p.t.i) by local subcutaneous injection (i.e., in the shaved back area just below tumor implantation site) of various PCK3145 concentrations. This treatment was continued daily for 16 days. Experiments were terminated 24 hours after the last treatment. Tumor measurements were taken at days 7, 9, 11, 14, 16 and 18. Tumor volumes are calculated according to formula (a×b^2×0.5), where a—is the length of the long diameter, b—width of the perpendicular small diameter. At day 19 tumors of individual rats were excised and weighed.
Study No: MLL-5 illustrates the efficacy of PCK3145 (SEQ ID NO: 5) compared with polypeptide 7-21 (SEQ ID NO: 4) and polypeptide 76-94 (SEQ ID NO: 6) in tumor growth retardation in Copenhagen rats, which have received Mat Ly Lu implants. Mice were separated in different groups, each receiving various amount of PCK3145 (SEQ ID NO: 5) or control reagents. PCK3145 was injected through the subcutaneous route. The different groups used in these experiments are illustrated in table 8 below. Each group contained 8 mice.
Study No: MLL-6 illustrates the efficacy of PCK3145 (SEQ ID NO: 5) in tumor growth retardation in Copenhagen rats, which have received Mat Ly Lu implants. Mice were separated in different group each receiving various amounts of PCK3145 (SEQ ID NO: 5) or control reagents. PCK3145 was injected through the subcutaneous route. The different groups used in these experiments are illustrated in table 9 below. Each group contained 8 mice. Doxorubicin was administered as single bolus via intra-venous injection on day 3 p.t.i.

Assay [1] concerns human prostate cancer cells PC-3. Put plainly: MTS assay, growth inhibitory effect on PC-3 cells. It is filed as cell-based. The note with it: for growth inhibition of PC-3 cells (FIG. 10): 72 hours. The source says: Cell proliferation was monitored on PC-3 cells using the MTS/PMS (phenazine methosulfate) kit (Promega), which primarily measures mitochondrial activity of live cells. The basic principle of this method involves the fact that the mitochondrial enzymes of the live cells metabolize the MTS/PMS dyes forming a brown colored precipitate which can be measured as optical density (OD) by absorption at 490 nm in a spectrophotometer. Therefore, the OD values are proportional to the number of living cells. In addition, monitoring of cell morphology was also performed. Cell morphology would be indicative of their health status. For example, viable cells would appear adherent and spread out whereas dead cells would be in suspension in the media and would appear granular and round.
PC-3 cells (ATCC, Lot AT06) used in these experiments were at a passage number lower or equal to 70 (n≧70). Cells were seeded in Costar 96 well cell culture flat bottom plates in RPMI supplemented media containing 50 μg/ml of bovine serum albumin (BSA) and 0.1 μM FeSO4. Peptide was diluted in the same media. Cells were continuously exposed to the polypeptides of the present invention for 72 hours without changing media. Native PSP94 or rHuPSP94 concentrated two fold were directly added to wells and diluted to 1× in order to minimize cell manipulation and avoid detachment.
Native PSP94, rHuPSP94, polypeptide 22-36 and PB111 polypeptide (scrambled polypeptide) were also included in this experiment as controls. Cell proliferation assay was performed on either PC-3 cells or normal fibroblasts (used here as control) using the MTS/PMS kit (Promega). Four thousand cells (FIGS. 9 and 10) or three thousand (FIG. 11) cells were seeded in Costar 96 well cell culture flat bottom plates in RPMI supplemented media containing 50 μg/ml of bovine serum albumin (BSA) and 0.1 μM FeSO4. In addition, monitoring of cell morphology was also performed.
This assay measures the mitochondrial activity of the live cells. The basic principle of this method involves the fact that the mitochondrial enzymes of the live cells metabolize the MTS/PMS dyes forming a brown colored precipitate which can be measured as optical density (OD) by absorption at 490 nm in a spectrophotometer. Therefore, the OD values are proportional to the number of living cells.
In addition, a visual observation of the cells was also done to check the cell morphology, which could also be indicative of cell growth. The following conditions for MTS assay were used: PC-3 (ATCC, Lot AT06), passage number n≧70, cell line adapted to grow in serum-free OPTI-MEM and in RPMI supplemented with BSA (50 μg/ml) and Ferrous Sulfate (0.1 μM), continuous exposure for up to 72 hours without changing media (i.e., adding PCK3145 at 2× concentration directly to wells and diluting it 1:2 to 1× to minimize cell manipulation and avoid detachment).

In another assay the test system is PC-3 cells. The assay is described as follows: Apoptosis assay by ELISA plus. The note with it: for apoptotic cell death effect: 22.5 μM to 90 μM, 72 hours. In kind it is cell-based, human. Here is the method:
The three polypeptides (SEQ ID NO: 4, SEQ ID NO: 5 and SEQ ID NO 6) and native PSP94 used here as a positive control were tested in ELISA plus assay to measure cell death through apoptosis. Briefly, the ELISA plus assay is a sandwich enzyme immunoassay able to measure mono- and oligonucleosomes present in the cytoplasmic fraction of cell lysate using two antibodies, one directed against DNA and the other directed against histones. The apoptotic cell death is characterized by activation of endogenous endonucleases (e.g., calcium- and magnesium-dependant), which cleave double-stranded DNA at the most accessible internucleosomal linker region, generating mono- and oligonucleosomes. The enrichment of mono- and oligonucleosomes in the cytoplasm of the apoptotic cells is due to the fact that DNA degradation occurs several hours before plasma membrane breakdown.
Four thousand cells were seeded in Costar 96 well cell culture flat bottom plates in RPMI supplemented media containing 50 μg/ml of bovine serum albumin (BSA) and 0.1 μM FeSO4. The PC-3 cells were treated with various concentrations (22.5 μM to 90 μM) of polypeptides for 72 hours. Apoptosis assay was done as per manufacturer's instructions using the ApopTag kit (Boeringher Mannheim).
(An ELISA detects its analyte on a solid surface through an enzyme-linked reagent.)

Peptide text beside a SMILES is read from it.

As for “polypeptide 7-21: PSP94 derived synthetic polypeptide from the amino terminus end, SEQ ID NO: 4 (NEGVPGDSTRKCMDL; Polypeptide 7-21)”, the “anti-tumor effect (tumor volume), study MLL-5” value in the assay with Dunning Mat Ly Lu tumors (s.c., days 13, 16, 18, dose not given) is on record as “comparable anti-tumor effect”. For the same compound, the “growth inhibition of PC-3 cells (FIG. 10)” value in assay [1] was “significant growth inhibition”. Further, the “apoptotic cell death effect” value in the assay on PC-3 cells is reported as “dose dependent increase in the apoptotic cell death effect”.
On to `C[C@@H](O)[C@H](NC(=O)[C@H](CCC(=O)O)NC(=O)[C@H](Cc1ccc(O)cc1)NC(=O)[C@H](CS)NC(=O)[C@@H](NC(=O)[C@H](CS)NC(=O)[C@@H](NC(=O)[C@H](CCC(=O)O)NC(=O)[C@H](CS)NC(=O)[C@H](CC(N)=O)NC(=O)[C@H](CC(=O)O)NC(=O)[C@@H](NC(=O)[C@H](CCC(N)=O)NC(=O)[C@H](Cc1c[nH]c2ccccc12)NC(=O)[C@@H](N)CCC(=O)O)[C@@H](C)O)[C@@H](C)O)[C@@H](C)O)C(=O)O` [PCK3145, EWQTDNCETCTCYET] (H-EWQTDNCETCTCYET-OH; N-terminus and C-terminus assumed), for which the “anti-tumor effect (tumor volume), study MLL-5” value with Dunning Mat Ly Lu tumors (1 μg/kg/day s.c.) is “No significant effect”; with Dunning Mat Ly Lu tumors (10 μg/kg/day s.c., days 11, 13, 16, 18), “significant anti-tumor effect”. Further, the “tumor volume reduction over control, study MLL-6” value in the assay on Dunning Mat Ly Lu tumors (100 μg/kg/day s.c., days 14, 16 and 18) is 31%. Also, in the assay on Dunning Mat Ly Lu tumors (100 μg/kg/day, day 18 p.t.i), the “difference in tumor weight between control and treated group, study MLL-6” value is 20 gram. Also, in the assay on Dunning Mat Ly Lu tumors (100 μg/kg/day, day 18 p.t.i, control 56.6 g), the “tumor weight, study MLL-6” value amounted to 37.2 g. For the same compound, the “reduction in tumor mass, study MLL-6” value in the assay with Dunning Mat Ly Lu tumors (100 μg/kg/day, day 18 p.t.i, p=0.0003) is 34%. Besides, the “anti-tumor effect, study MLL-6” value in the assay on Dunning Mat Ly Lu tumors (10 and 100 μg/kg/day s.c.) was “significant dose-dependent anti-tumor effect”. The “inhibitory effect on the growth of PC-3 cells” value in assay [1] (0 to 400 μg/ml, tests repeated 5 times) is recorded as “dose dependent inhibitory effect”. For the same compound, the “growth inhibition of PC-3 cells (FIG. 10)” value in assay [1] is on record as “significant growth inhibition”. Besides, in the assay on PC-3 cells, the “apoptotic cell death effect” value is “dose dependent increase in the apoptotic cell death effect”. In addition, in the assay on PC-3 cells (90 μM), the “apoptotic cell death, potency relative to the other polypeptides” value is “more potent than the other polypeptides”.

For the origin of these results see patent publication US8551951B2, “Pharmaceutical preparations and methods for inhibiting tumors” (Aenorasis SA Pharmaceuticals and Medical Devices, priority 2000, dated 2013).
